From PubChem BioAssay (NCI) come the findings set out here.

Common to all, as to test: NCI anticancer screen, dose series, 48 h
Test [1] relates to SF-295 CNS.
In test [2] the test system is HCT-15 colon.
Test [3] has as its system OVCAR-4 ovarian.
In test [4] the test system is HL-60(TB) leukemia.
Test [5] concerns U251 CNS.
Test [6] deals with MALME-3M melanoma.
For test [7], the system named is SR leukemia.
Test [8] deals with 786-0 renal.
The test system of test [9] is SK-MEL-5 melanoma.
In test [10] the test system is OVCAR-8 ovarian.

Where “and” joins values, the source holds several entries; their conditions need not be identical. Equal entries are not always repeated.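 Compound exposure: 48 hours, 5 concentrations, 96-well plates. GI50 = concentration required for 50% inhibition of growth. TGI is the concentration that stops growth completely.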

On to `CCC(C(=O)[O-])C(=O)[O-].CCC(C(=O)[O-])C(=O)[O-].N.N.NCCCCCCN.[Pt+4].[Pt+4]`, for which the GI50 in test [1] was 23.2 µM; in [2], 5 µM; in [3] it was 5.85 µM; in test [4], 1.68 µM; in test [5] it was 8.8 µM; in [6], 1 µM. Besides, the GI50 in test [7] was 6.11 µM; in test [8] it was 7.74 µM; in test [9], 3.35 µM; in test [10], 11.5 µM. For the same compound, the TGI in test [1] is 50 µM; in test [2], 13.8 µM; in test [3], 13 µM; in [4], 4.63 µM; in [5], 16.5 µM; in test [6], 1.9 µM. The TGI in [7] is 35.4 µM; in test [8], 14.5 µM; in test [9], 9.46 µM; in test [10] it was 28.1 µM.
For the compound `C[C@H]1C(Oc2ccc(O)cc2)OC2OC3(C)CCC4[C@H](C)CCC1C24OO3` (some centres undefined), the GI50 is 16.2 µM in test [1]; 2.36 µM in [2]; 4.7 µM in [3]; 0.57 µM in [4]; 11 µM in test [5]; 14.1 µM in [6]. For the same compound, the GI50 in test [8] was 10.7 µM; in test [9] it was 13.2 µM; in test [10], 2.12 µM. For the same compound, the TGI was 34.5 µM in [1]; 23.8 µM in test [2]; 31 µM in [3]; 24.4 µM in [4]; 25.8 µM in test [5]; 28.9 µM in test [6]. Besides, the TGI in [7] was more than 100 µM; in test [8], 27.2 µM; in test [9], 27.3 µM; in test [10] it was 25.4 µM.
Take `C/C(Cc1ccc(Cl)cc1)=C(/c1ccc(Cl)cc1)c1ccc(OCCN(C)C)cc1`: the GI50 was 5.5 µM in test [1]; 1.19 µM in test [2]; 3.52 µM in test [3]; 3.89 µM in test [4]; 3.72 µM in [5]; 3.68 µM in [6]. Also, the GI50 was 0.991 µM in [7], 4.55 µM in test [8], 4.4 µM in [9] and 5.75 µM in [10]. The TGI in test [1] was 10.3 µM; in test [2], 4.27 µM; in test [3] it was 7.57 µM; in [4], 10 µM; in test [5], 8.6 µM; in test [6], 8.63 µM. In addition, the TGI in test [7] is 3.81 µM; in [8], 9.78 µM; in [9], 8.78 µM; in test [10] it was 13.7 µM.
Take `CCc1nc(Cl)nc(Cl)c1Cl`: the TGI in test [1] was 23.1 µM; in test [2] it was 1.88 µM; in test [3], 2.06 µM; in test [4], 3.59 µM; in [5] it was 3.32 µM; in [6], 1.57 µM. The TGI in [7] was 0.444 µM; in test [8] it was 6.42 µM; in [9], 7.71 µM; in test [10] it was 5.34 µM.
With `COc1ccccc1S(=O)(=O)Nc1ccc2c(c1)CN(C)C(=O)N2`, the GI50 is 6.48 µM and 9.42 µM in test [1]; 3.79 µM and 3.32 µM in test [2]; 3.4 µM and 4.28 µM in test [3]; 1.18 µM and 2.7 µM in test [4]; 14.1 µM and 13.2 µM in test [5]; 4.35 µM and 1.75 µM in test [6]. The GI50 in test [7] is 2.4 µM and 3.49 µM; in [8], 7.79 µM and 8.82 µM; in test [9], 3.88 µM and 4.42 µM; in test [10], 10.1 µM and 10.8 µM. The TGI in test [1], in [2], in test [3], in test [4], in [5] and in test [6] was more than 100 µM in each case. For the same compound, the TGI in test [7], in [8], in test [9] and in test [10] was more than 100 µM in each case.
On to `CC/C(C)=C1\OC(=O)C(C)C(O)C(Cc2cccnc2)NC(=O)C(NC(=O)c2ncccc2O)C(C)OC1=O` (centres undefined), for which the TGI in test [1], in test [2], in test [3], in [4], in test [5] and in [6] was more than 100 µM in each case. Further, the TGI in test [7], in [8], in test [9] and in test [10] was more than 100 µM throughout.
As to `CC(=O)[O][Hg][c]1ccccc1`, the GI50 in test [1] is 1.61 µM; in test [2], 0.277 µM; in test [3], 0.43 µM; in test [4], 0.201 µM; in [5] it was 0.453 µM; in test [6] it was 0.506 µM. The GI50 in [7] is 0.143 µM; in test [8] it was 1.43 µM; in [9] it was 0.472 µM; in [10], 0.921 µM. The TGI in [1] was 3.57 µM; in test [2] it was 0.877 µM; in [3] it was 2.24 µM; in [4], 0.487 µM; in [5] it was 1.75 µM; in test [6] it was 1.62 µM. The TGI in test [7] was 0.537 µM; in test [8], 2.82 µM; in test [9] it was 1.82 µM; in test [10] it was 3.96 µM.
For the compound `Cn1c(=S)c2[nH]c(SCCN3CCCC3)nc2n(C)c1=O`, the TGI in test [1], in test [2], in test [3], in test [4], in test [5] and in test [6] was more than 100 µM in each case. Moreover, the TGI in test [7], in test [8], in [9] and in test [10] was more than 100 µM each time.
`COc1ccc(C(=O)c2cc3c(N)c(C(=O)Nc4cccc(Cl)c4C)sc3nc2C)cc1`: the GI50 in test [1] is 0.0833 µM; in test [2], 0.101 µM; in test [3] it was 0.851 µM; in test [4], 0.0759 µM; in test [5], 0.104 µM; in test [6] it was 0.205 µM. For the same compound, the GI50 in test [7] was 0.0613 µM; in [8], 0.187 µM; in [9], 0.109 µM; in test [10], 0.125 µM. Also, the TGI in test [1] was more than 25 µM; in test [2], more than 25 µM; in [3] it was more than 25 µM; in test [4], 0.226 µM; in [5], more than 25 µM; in test [6], more than 25 µM. Also, the TGI in test [7] is 0.511 µM; in [8], more than 25 µM; in test [9] it was 2.45 µM; in test [10] it was more than 25 µM.
For `C#CCOc1cccc(Nc2ncnc3ccc(NC(=O)CCl)cc23)c1`, the GI50 in [1] was 2.29 µM; in test [2], 0.0709 µM; in [3], 5.49 µM; in test [4], 1.66 µM; in test [5], 0.364 µM; in [6], 3.46 µM. Further, the GI50 in [7] is 0.0743 µM; in test [8] it was 0.208 µM; in test [9], 3.37 µM; in test [10], 0.353 µM. In addition, the TGI was found to be 19.8 µM in test [1]; 15.1 µM in test [2]; 25.6 µM in test [3]; 19.2 µM in test [4]; 8.23 µM in [5]; 8.63 µM in test [6]. The TGI in [7] was 17.9 µM; in test [8], 2.84 µM; in test [9] it was 8.9 µM; in test [10] it was more than 65 µM.
Turning to `Cc1ccc(S(=O)(=O)Cc2nc(-c3ccc(C(=O)NCc4cccnc4)cc3)oc2C)cc1`, the GI50 in [1] was 9.34 µM; in [2] it was 0.0524 µM; in test [3], 2.64 µM; in test [4] it was 1.97 µM; in test [5], 1.01 µM; in [6], 27.5 µM. Moreover, the GI50 was 0.514 µM in test [7], 20 µM in [8], 2.85 µM in test [9] and less than 0.01 µM in [10]. Further, the TGI was more than 100 µM in test [1]; more than 100 µM in test [2]; more than 100 µM in [3]; more than 100 µM in [4]; more than 76.7 µM in [5]; more than 100 µM in [6]. In addition, the TGI in [7], in test [8], in test [9] and in [10] was more than 100 µM in each case.
As to `CCCCCCCCCCCCOC1C(CNC(=O)C2OC3OC(C)(C)OC3C2NC(=O)CN2CCCCCC2)OC2OC(C)(C)OC21` (centres undefined), the GI50 in test [1] is 6.75 µM; in test [2], 4.03 µM; in test [3], 6.47 µM; in test [4] it was 1.87 µM; in test [5], 4.91 µM; in [6] it was 1.99 µM. Moreover, the GI50 is 2.44 µM in test [7], 10.4 µM in test [8], 1.85 µM in [9] and 11 µM in test [10]. For the same compound, the TGI in test [1] turned out to be 20.4 µM; in [2], 14.8 µM; in test [3], 20 µM; in [4], 4.39 µM; in test [5] it was 15.9 µM; in test [6], 4.1 µM. Besides, the TGI in test [7] amounted to 4.91 µM; in test [8], 23.4 µM; in test [9], 3.41 µM; in [10] it was 25.5 µM.
